Measured values published in publication PMC11760775 (bioRxiv, 2025).
Entries after “also recorded” stand apart in the source; their conditions may differ.

Assays:
[1] = tested on: mice; assay: Tail flick acute heat nociception assay, reversal of morphine analgesia; assay type: in vivo, mouse; conditions: morphine 20mg/kg i.p., 50°C water bath
[2] = tested on: mice; assay: Conditioned place aversion in morphine tolerant mice; assay type: in vivo, mouse

Q: With CN1CC[C@]23c4c5ccc(O)c4O[C@H]2[C@@H](O)C=C[C@H]3[C@H]1C5 [morphine] as the molecule, how does the Tail flick latency [1] read?
A: Its Tail flick latency is “significantly increased”.

Q: What does the source list for C=CCN1CC[C@]23c4c5ccc(O)c4O[C@H]2C(=O)CC[C@@]3(O)[C@H]1C5 [naloxone]?
A: CPA score (Test - Pretest) [2]: avoided the treatment compartment to a greater extent; Time spent in antagonist-paired (withdrawal precipitation) chamber ([2]; after conditioning versus pre-treatment): marked decrease; also recorded: significantly less time
